Measured values: patent publication US20230150953A1, “SUBSTITUTED ISOPHTHALIC ACID DIAMIDES” (Bayer Aktiengesellschaft, priority 2020, published 2023)

Legend:
Assay type in all cases: in vivo
[1] = tested on: DIGSA Digitaria sanguinalis; assay: Pre-emergence herbicidal action against harmful plants; details: scored visually after 3 weeks vs untreated controls
Source text: (§1) The abbreviations used for the harmful plants mean: • ABUTH Abutilon theophrasti ALOMY Alopecurus myosuroides • AVEFA Avena fatua AMARE Amaranthus retroflexus • CYPES Cyperus esculentus DIGSA Digitaria sanguinalis • ECHCG Echinochloa crus-galli HORMU Hordeum murinum • LOLMU Lolium multiflorum LOLRI Lolium rigidum • MATIN Matricaria inodora PHBPU Pharbitis purpurea • POLCO Polygonum convolvulus SETVI Setaria viridis • STEME Stellaria media VERPE Veronica persica • VIOTR Viola tricolor 1. Pre-Emergence Herbicidal Action Against Harmful Plants Seeds of monocotyledonous and dicotyledonous weed plants and crop plants are laid out in sandy loam soil in wood-fiber pots and covered with soil. The compounds of the invention, formulated in the form of wettable powders (WP) or as emulsion concentrates (EC), are then applied to the surface of the covering soil in the form of an aqueous suspension or emulsion at a water application rate equivalent to 600 to 800 l/ha, with addition of 0.2% wetting agent. After the treatment, the pots are placed in a greenhouse and kept under good growth conditions for the trial plants. The damage to the test plants is scored visually after a test period of 3 weeks by comparison with untreated controls (herbicidal activity in percent (%): 100% activity=the plants have died, 0% activity=like control plants). […] The tables below illustrate, in an illustrative manner, the post-emergence herbicidal action of the compounds of the invention, the herbicidal activity being stated in percent.

[2] = tested on: AVEFA Avena fatua; assay: as above; details: scored visually after 3 weeks vs untreated controls
Source text: as §1

[3] = tested on: ECHCG Echinochloa crus-galli; assay: as above; details: scored visually after 3 weeks vs untreated controls
Source text: as §1

[4] = tested on: MATIN Matricaria inodora; assay: as above; details: scored visually after 3 weeks vs untreated controls
Source text: as §1

[5] = tested on: ABUTH Abutilon theophrasti; assay: as above; details: scored visually after 3 weeks vs untreated controls
Source text: as §1

[6] = tested on: POLCO Polygonum convolvulus; assay: as above; details: 80 g/ha, scored visually after 3 weeks vs untreated controls
Source text: as §1

[7] = tested on: AMARE Amaranthus retroflexus; assay: as above; details: scored visually after 3 weeks vs untreated controls
Source text: as §1

[8] = tested on: SETVI Setaria viridis; assay: as above; details: scored visually after 3 weeks vs untreated controls
Source text: as §1

[9] = tested on: ALOMY Alopecurus myosuroides; assay: as above; details: scored visually after 3 weeks vs untreated controls
Source text: as §1

[10] = tested on: ECHCG Echinochloa crus-galli; assay: Post-emergence herbicidal action against harmful plants; details: one-leaf stage, assessed visually after about 3 weeks vs untreated controls
Source text: (§2) The abbreviations used for the harmful plants mean: • ABUTH Abutilon theophrasti ALOMY Alopecurus myosuroides • AVEFA Avena fatua AMARE Amaranthus retroflexus • CYPES Cyperus esculentus DIGSA Digitaria sanguinalis • ECHCG Echinochloa crus-galli HORMU Hordeum murinum • LOLMU Lolium multiflorum LOLRI Lolium rigidum • MATIN Matricaria inodora PHBPU Pharbitis purpurea • POLCO Polygonum convolvulus SETVI Setaria viridis • STEME Stellaria media VERPE Veronica persica • VIOTR Viola tricolor 2. Post-Emergence Herbicidal Action Against Harmful Plants Seeds of monocotyledonous and dicotyledonous weed and crop plants are laid out in sandy loam soil in wood-fiber pots, covered with soil and cultivated in a greenhouse under good growth conditions. 2 to 3 weeks after sowing, the test plants are treated at the one-leaf stage. The compounds of the invention, formulated in the form of wettable powders (WP) or as emulsion concentrates (EC), are then sprayed onto the green parts of the plants in the form of an aqueous suspension or emulsion at a water application rate equivalent to 600 to 800 l/ha, with addition of 0.2% wetting agent. After the test plants have been left to stand in the greenhouse under optimal growth conditions for about 3 weeks, the action of the preparations is assessed visually in comparison to untreated controls (herbicidal action in percent (%): 100% activity=the plants have died, 0% activity=like control plants). […] The tables below illustrate, in an illustrative manner, the post-emergence herbicidal action of the compounds of the invention, the herbicidal activity being stated in percent.

[11] = tested on: AMARE Amaranthus retroflexus; assay: as above; details: one-leaf stage, assessed visually after about 3 weeks vs untreated controls
Source text: as §2

[12] = tested on: ALOMY Alopecurus myosuroides; assay: as above; details: one-leaf stage, assessed visually after about 3 weeks vs untreated controls
Source text: as §2

[13] = tested on: VERPE Veronica persica; assay: Pre-emergence herbicidal action against harmful plants; details: scored visually after 3 weeks vs untreated controls
Source text: as §1

[14] = tested on: MATIN Matricaria inodora; assay: Post-emergence herbicidal action against harmful plants; details: one-leaf stage, assessed visually after about 3 weeks vs untreated controls
Source text: as §2

[15] = tested on: ABUTH Abutilon theophrasti; assay: as above; details: one-leaf stage, assessed visually after about 3 weeks vs untreated controls
Source text: as §2

[16] = tested on: LOLRI Lolium rigidum; assay: Pre-emergence herbicidal action against harmful plants; details: scored visually after 3 weeks vs untreated controls
Source text: as §1

[17] = tested on: PHBPU Pharbitis purpurea; assay: as above; details: 80 g/ha, scored visually after 3 weeks vs untreated controls
Source text: as §1

[18] = tested on: DIGSA Digitaria sanguinalis; assay: Post-emergence herbicidal action against harmful plants; details: one-leaf stage, assessed visually after about 3 weeks vs untreated controls
Source text: as §2

[19] = tested on: PHBPU Pharbitis purpurea; assay: as above; details: one-leaf stage, assessed visually after about 3 weeks vs untreated controls
Source text: as §2

[20] = tested on: POLCO Polygonum convolvulus; assay: as above; details: one-leaf stage, assessed visually after about 3 weeks vs untreated controls
Source text: as §2

[21] = tested on: SETVI Setaria viridis; assay: as above; details: one-leaf stage, assessed visually after about 3 weeks vs untreated controls
Source text: as §2

| Compound | Pre-emergence action at 20 g/ha against DIGSA in % [1] [%] | Pre-emergence action at 80 g/ha against DIGSA in % [1] [%] | Pre-emergence action at 80 g/ha against ECHCG in % [3] [%] | Pre-emergence action at 80 g/ha against MATIN in % [4] [%] | Pre-emergence action at 80 g/ha against ABUTH in % [5] [%] | Pre-emergence action at 80 g/ha against POLCO in % [6] [%] | Pre-emergence action at 20 g/ha against AMARE in % [7] [%] | Pre-emergence action at 80 g/ha against AMARE in % [7] [%] | Pre-emergence action at 80 g/ha against SETVI in % [8] [%] | Pre-emergence action at 80 g/ha against ALOMY in % [9] [%] | Post-emergence action at 20 g/ha against ECHCG in % [10] [%] | Post-emergence action at 5 g/ha against AMARE in % [11] [%] | Post-emergence action at 20 g/ha against AMARE in % [11] [%] | Post-emergence action at 20 g/ha against ALOMY in % [12] [%] | Pre-emergence action at 20 g/ha against MATIN in % [4] [%] | Pre-emergence action at 20 g/ha against ABUTH in % [5] [%] | Post-emergence action at 20 g/ha against MATIN in % [14] [%] | also measured |
| --- | --- | --- | --- | --- | --- | --- | --- | --- | --- | --- | --- | --- | --- | --- | --- | --- | --- | --- |
| Cc1c(C(=O)Nc2nnnn2C)c(F)cc(C(F)(F)F)c1C(=O)NCC1CC1 [Example 1-384] | 100 | 100 | 100 | 80 | 100 | 90 | 100 | 100 | 90 | 80 | 80 | 80 | 90 | 80 | – | – | – | Pre-emergence action at 80 g/ha against AVEFA in % [2]: 80%; Post-emergence action at 5 g/ha against ECHCG in % ([10]; 5 g/ha): 80% |
| CCn1nnnc1NC(=O)c1c(F)cc(C(F)(F)F)c(C(=O)N(C)C2CC2)c1C [Example 2-97] | 90 | 100 | 80 | 100 | 100 | – | 100 | 100 | – | – | – | – | – | – | 90 | 100 | 80 | Pre-emergence action at 20 g/ha against VERPE in % ([13]; 20 g/ha): 80%; Pre-emergence action at 80 g/ha against VERPE in % [13]: 80% |
| CNC(=O)c1c(C(F)(F)F)cc(F)c(C(=O)Nc2nnnn2C)c1Cl [Example 1-180] | 80 | 80 | – | 100 | 100 | – | 100 | 100 | – | – | – | 80 | 90 | – | – | – | – | Post-emergence action at 20 g/ha against ABUTH in % [15]: 90% |
| CCn1nnnc1NC(=O)c1cc(Cl)c(C(F)(F)F)c(C(=O)NC2CC2)c1C [Example 2-85] | 80 | 100 | 80 | 100 | 100 | 80 | 100 | 100 | 100 | 90 | – | 80 | 90 | 80 | 90 | 80 | 80 | Pre-emergence action at 80 g/ha against AVEFA in % [2]: 80%; Pre-emergence action at 80 g/ha against LOLRI in % [16]: 80%; Pre-emergence action at 80 g/ha against PHBPU in % [17]: 90%; Pre-emergence action at 20 g/ha against ALOMY in % ([9]; 20 g/ha): 80%; Post-emergence action at 20 g/ha against DIGSA in % [18]: 90%; Post-emergence action at 5 g/ha against PHBPU in % ([19]; 5 g/ha): 80%; Post-emergence action at 20 g/ha against PHBPU in % [19]: 90%; Post-emergence action at 20 g/ha against POLCO in % [20]: 80% |
| Cn1nnnc1NC(=O)c1c(F)cc(C(F)(F)F)c(C(=O)NC2CC2)c1Cl [Example 1-182] | 90 | 100 | – | 100 | 100 | 90 | 100 | 100 | – | 80 | 80 | 80 | 100 | 80 | – | – | – | Pre-emergence action at 80 g/ha against VERPE in % [13]: 100% |
| CNC(=O)c1c(C(F)(F)F)cc(F)c(C(=O)Nc2nnnn2C)c1C [Example 1-92] | – | 100 | – | 90 | 100 | – | 90 | 100 | 100 | 80 | 80 | 80 | 90 | – | 90 | – | – | Pre-emergence action at 20 g/ha against SETVI in % ([8]; 20 g/ha): 80%; Post-emergence action at 20 g/ha against PHBPU in % [19]: 80%; Post-emergence action at 20 g/ha against SETVI in % [21]: 80% |
| CCn1nnnc1NC(=O)c1c(F)cc(C(F)(F)F)c(C(=O)NCC(F)F)c1C [Example 2-385] | 90 | 100 | 80 | 90 | 100 | 90 | – | 100 | – | – | – | 80 | 90 | – | 80 | – | – | Post-emergence action at 20 g/ha against SETVI in % [21]: 80% |
| CCNC(=O)c1c(C(F)(F)F)cc(F)c(C(=O)Nc2nnnn2C)c1Cl [Example 1-181] | – | 80 | – | 100 | 100 | – | 100 | 100 | – | – | – | 90 | 90 | – | – | – | – | Post-emergence action at 20 g/ha against ABUTH in % [15]: 90% |
| Cc1c(C(=O)Nc2nnnn2C)c(F)cc(C(F)(F)F)c1C(=O)N(C)C1CC1 [Example 1-97] | 80 | 100 | 90 | 100 | 100 | – | 100 | 100 | 80 | 80 | – | – | – | – | 90 | 100 | 80 | Post-emergence action at 20 g/ha against POLCO in % [20]: 100% |
